Reference: patent publication US8202860B2, “Methods and compositions for treating primary and secondary tumors of the central nervous system (CNS)” (Ed. Geistlich Soehne AG fuer Chemische Industrie, priority 1999, dated 2012)
“Also recorded” adds a separate entry of the source.

Columns and labels:
[1] = tested on: neuronal (HT22) tumor cell line; assay: growth inhibition of neuronal tumor cell line in cell culture; format: cell-based, mouse
Procedure: (§1) For the latter cell line, however, the experiments are not complete as yet. […] The effect was concentration-dependent. […] The tumor cells were inhibited selectively beginning after 30 minutes. Following 1 to 3 hours about 90% of the tumor cells were inhibited. For the cell culture, cells were used in RPM1 1640 medium and plated in Falcon flasks.

[2] = tested on: glial (C6) tumor cell line; assay: growth inhibition of glial tumor cell line in cell culture; format: cell-based, rat
Procedure: as §1

[3] = tested on: mixed neuronal and glial (U373) tumor cell line; assay: growth inhibition of mixed neuronal and glial tumor cell line in cell culture; format: cell-based, human; settings: experiments are not complete as yet
Procedure: as §1

[4] = tested on: CNS tumor cell lines (HT22, C6, U373); assay: inhibition of CNS tumor cells in culture (lines reported together), cytological changes recorded over time; format: cell-based; settings: for time after which inhibition of tumor cells started: Results section (HT22, C6)
[5] = tested on: primary CNS-cells (brain cells of rat fetuses); assay: effect on primary CNS cells in cell culture; format: cell-based
[6] = cited from earlier work
[7] = tested on: glioblastoma multiform-tumor cells; assay: tissue-culture of glioblastoma multiform tumor cells
[8] = following 1 to 3 hours, Example 1
[9] = following about 1 to 2 hours, Results section

Structure (SMILES)	direct inhibition of growth of tumor cell line [1]	direct inhibition of growth of tumor cell line [2]	direct inhibition of growth of tumor cell line [3]	effectiveness relative to Taurolidine [4]	time after which selective inhibition of tumor cells began ([4]; Example 1)	time after which inhibition of tumor cells started [4]	tumor cells inhibited [4, 8]	tumor cells inhibited [4, 9]	cytological effect on primary CNS-cells ([5]; following 48 hours)	effect on CNS nerve cells, including stem cells of embryo meningeal cells ([5]; following administration of Taurolidine/Taurultam solutions)	growth inhibition of normal/primary central nervous system cells (selectivity versus tumor cells) ([5]; primary cell lines of fetal rat central nervous system, compared to tumor cells)	water solubility [6]	concentration that inhibits or kills tumor cells in tissue-culture [7]
O=S1(=O)CCNCN1 [Taurultam]	inhibit directly the growth	inhibit directly the growth	inhibit directly the growth	almost twice as effective as Taurolidine	30 min	10 min	about 90%	90%	no significant cytological effect	remain unaffected	required significantly higher concentrations and a significantly longer contact time for inhibition; also recorded: not significantly inhibited	–	–
O=S1(=O)CCN(CN2CCS(=O)(=O)NC2)CN1 [Taurolidine, Bis-(1,1-dioxoperhydro-1,2,4-thiadiazinyl-4)methane]	inhibit directly the growth	inhibit directly the growth	inhibit directly the growth	–	–	10 min	about 90%	90%	–	–	–	up to 2%	0.1 to 4 mg/mL
